# Laboratory results published in patent US20140018242A1, “METHOD OF CROP ENHANCEMENT” (SYNGENTA PARTICIPATIONS AG, priority 2010, published 2014).
# Tests used:
# Assay type in all cases: in vivo
# Barley (Hordeum vulqare) = test: Foliar application to barley, plant growth effects (plant height, tillers); details: 12.5 ppm foliar, 9DAA; for av. tillers per plant: check 0
# Description: Five replicates (pots with three 10d old barley plants each) were sprayed with respective test solutions. Test solutions contained the formulated test compound and the adjuvant Mero (0.1% v/v). Plants were kept under glasshouse conditions at 22° C. with a photo period of 14 h. 9d after application the average plant height per replicate was measured and the number of tillers per replicate was counted. […] Additionally, the number of tillers were increased.
# Soybeans (Glycine max) [1] = test: Foliar application to soybeans, effects on water consumption, plant height, chlorophyll content; details: soybean, 26 days after spray; for water consumption: foliar spray 100 ga/ha (EC050) 21 days after sowing, no watering after spray; for plant height / chlorophyll content: foliar spray 100 ga/ha (EC050); for chlorophyll content: third trifoliate-leaf
# Description: Soybean plants were grown in a climate chamber at 22° C. during 14 h daytime and 20° C. during 10 h night at 70% rel.humidity. Plants were sprayed 21 days after sowing with a 100 ga/ha of the test compound, formulated as a standard EC050. Water status was adjusted befor spray for all pots, and plants not watered anymore after spray. After growing further 26 days in the controlled environment, the plant height, chlorophyll content of the third trifoliate-leaf, and water consumption was determined.
# Spring-wheat = test: Foliar application to spring-wheat, effects on water consumption, plant height; details: 26 days after spray; for water consumption: foliar spray 50 ga/ha (EC050) 21 days after sowing, no watering after spray; for plant height: foliar spray 50 ga/ha (EC050)
# Description: Wheat plants were grown in a climate chamber at 18° C., 14 h daytime and 10 h night, at 70% rel.humidity. Plants were sprayed 21 days after sowing with a 50 ga/ha of the test compound, formulated as a standard EC050. Water status was adjusted before spray for all pots and plants not watered anymore after spray. After growing further 26 days in the controlled environment the plant height, and water consumption was determined.
# Soybeans (Glycine max) [2] = test: Foliar application to soybeans, effects on yield (number and size of pods, root parameters); details: 68 g AI/ha foliar, 29DAA; for No. of root tips, Mean (in %) relative to check / Root length, Mean (in %) relative to check: WinRhizo; for Mean no. of pods per plant, only pods >20 mm: check 1.8; for Mean no. of pods per plant, all pods considered: check 5.4; for pod length - sum per trmt (mm), only pods >20 mm: check 276; for pod length - sum per trmt (mm), all pods considered: check 452
# Description: Three week old soybean plants (5 replicates) were sprayed with respective test solutions. Test solutions contained the formulated test compound and the adjuvant Mero (0.1% v/v). Plants were kept under glasshouse conditions at 22° C. with a photo-period of 14 h. 29d after application the individual number and size of pods per plant were measured. Additionally, the overall root system of individual plants was scanned and analysed by the image analysis software ‘WinRhizo’ (Regent Instruments Inc., 2009). […] The average number of taller pods (related to number of seeds) was increased.
# Soybeans (Glycine max) [3] = test: Soil application (drench) to soybeans in rhizoboxes, effects on root system and shoot; details: 30DAA; for Stem thickness (mm) below respective leaf, Mean / leaf area (cm^2), Mean: 0.12 mg AI per plant drench
# Description: Three two-week old soybean plants were transplanted to ‘rhizoboxes’ (ca. 12 L soil volume). One day later 0.12 mg Al of compound T1.070, wherein G is CO2Et, were applied (drench) to each plant. Plants were kept under glasshouse conditions at 22° C. with a photo-period of 14 h. 30 DAA the entire root system per rhizobox was scanned and analysed by the image analysis software ‘WinRhizo’ (Regent Instruments Inc., 2009).
# [4] = system: French beans (Phaseolus vulgaris); test: Soil application to French beans, effects on flowering (BBCH) and plant physiology (NDVI, NIR); design: NIR (Near infrared band reflectance): unit not given here; details: 0.01 mg AI per plant drench, mean of 4 reps; for BBCH (plant growth stage): 15DAA, check 57; for NDVI (Normalized difference vegetative index) / NIR (Near infrared band reflectance): 25DAA; for NDVI (Normalized difference vegetative index): check 0.431; for NIR (Near infrared band reflectance): check 4.32
# Description: Four two week old French bean plants were treated with 0.01 mg Al per plant as soil application (drench). Plants were kept under glasshouse conditions at 22° C. with a photo-period of 14 h. 15DAA the development stage of blossoms was assessed. 25DAA the photosynthetic capacity of plants (NDVI, NIR) was measured.
# [5] = soybean, drench 0.12 mg AI per plant
# [6] = soybean, drench 0.12 mg AI per plant, entire root system per rhizobox, WinRhizo
smiles,measurement,setting,value
"CCOC(=O)OC1=C(c2c(C)cc(Br)cc2C)C(=O)NC12CCN(OC)CC2 [T1iii.66, wherein G is CO2Et]",av. plant height (cm),Barley (Hordeum vulqare),27.2 cm
same,av. tillers per plant,Barley (Hordeum vulqare),4.2
"CCOC(=O)OC1=C(c2c(C)cc(Cl)cc2C)C(=O)NC12CCN(OC)CC2 [T1iii.67, wherein G is CO2Et]",water consumption,Soybeans (Glycine max) [1],379 ml/26 days
same,plant height,Soybeans (Glycine max) [1],16.5 cm
same,chlorophyll content,Soybeans (Glycine max) [1],44.6 reflectance
same,water consumption,Spring-wheat,218 ml/26 days
same,plant height,Spring-wheat,27.9 cm
same,av. plant height (cm),Barley (Hordeum vulqare),24.4 cm
same,av. tillers per plant,Barley (Hordeum vulqare),3.8
"CCOC(=O)OC1=C(c2c(C)cc(Cl)cc2C)C(=O)N(C)C12CCN(OC)CC2 [T1.067, wherein G is CO2Et]",water consumption,Soybeans (Glycine max) [1],376 ml/26 days
same,plant height,Soybeans (Glycine max) [1],16.5 cm
same,chlorophyll content,Soybeans (Glycine max) [1],43.4 reflectance
same,water consumption,Spring-wheat,219 ml/26 days
same,plant height,Spring-wheat,26.9 cm
same,"No. of root tips, Mean (in %) relative to check",Soybeans (Glycine max) [2],18.8%
same,"Root length, Mean (in %) relative to check",Soybeans (Glycine max) [2],16.1%
same,"Mean no. of pods per plant, only pods >20 mm",Soybeans (Glycine max) [2],3.4
same,"Mean no. of pods per plant, all pods considered",Soybeans (Glycine max) [2],6.0
same,"pod length - sum per trmt (mm), only pods >20 mm",Soybeans (Glycine max) [2],545 mm
same,"pod length - sum per trmt (mm), all pods considered",Soybeans (Glycine max) [2],682 mm
"CCOC(=O)OC1=C(c2c(C)cc(C)cc2C)C(=O)N(C)C12CCN(OC)CC2 [T1.070, wherein G is CO2Et]","Stem thickness (mm) below respective leaf, Mean","Soybeans (Glycine max) [3]; 1st trifoliate leaf, untreated 2.04",2.39 mm
same,"leaf area (cm^2), Mean","Soybeans (Glycine max) [3]; 1st trifoliate leaf, untreated 42.95",60.59 cm^2
same,"Stem thickness (mm) below respective leaf, Mean","Soybeans (Glycine max) [3]; 1st true leaves, untreated 2.31",2.87 mm
same,"leaf area (cm^2), Mean","Soybeans (Glycine max) [3]; 1st true leaves, untreated 28.54",39.82 cm^2
same,"Stem thickness (mm) below respective leaf, Mean","Soybeans (Glycine max) [3]; 2nd trifoliate leaf, untreated 1.87",2.09 mm
same,"leaf area (cm^2), Mean","Soybeans (Glycine max) [3]; 2nd trifoliate leaf, untreated 58.76",72.44 cm^2
same,"Stem thickness (mm) below respective leaf, Mean","Soybeans (Glycine max) [3]; 3rd trifoliate leaf, untreated 1.60",1.86 mm
same,"leaf area (cm^2), Mean","Soybeans (Glycine max) [3]; 3rd trifoliate leaf, untreated 58.01",77.72 cm^2
same,"Stem thickness (mm) below respective leaf, Mean","Soybeans (Glycine max) [3]; 4th trifoliate leaf, untreated 1.11",1.32 mm
same,"leaf area (cm^2), Mean","Soybeans (Glycine max) [3]; 4th trifoliate leaf, untreated 18.09",27.48 cm^2
same,Shoot growth (plant growth),Soybeans (Glycine max) [3]; [5],Enhanced plant growth was also observed by fortified shoot growth.
same,Visual impression of root system,Soybeans (Glycine max) [3]; [5],clearly enhanced root system
same,"Root parameters relative to check: Length (cm), rel. to check (0%)",Soybeans (Glycine max) [3]; [6],41.3%
same,"Root parameters relative to check: RootVolume (cm3), rel. to check (0%)",Soybeans (Glycine max) [3]; [6],52.2%
same,"Root parameters relative to check: SurfaceArea (cm2), rel. to check (0%)",Soybeans (Glycine max) [3]; [6],46.6%
same,"Root parameters relative to check: Tips, rel. to check (0%)",Soybeans (Glycine max) [3]; [6],63.1%
same,water consumption,Soybeans (Glycine max) [1],393 ml/26 days
same,plant height,Soybeans (Glycine max) [1],17.3 cm
same,chlorophyll content,Soybeans (Glycine max) [1],39.9 reflectance
same,water consumption,Spring-wheat,208 ml/26 days
same,plant height,Spring-wheat,27.4 cm
same,"No. of root tips, Mean (in %) relative to check",Soybeans (Glycine max) [2],43.7%
same,"Root length, Mean (in %) relative to check",Soybeans (Glycine max) [2],32.0%
same,"Mean no. of pods per plant, only pods >20 mm",Soybeans (Glycine max) [2],3.2
same,"Mean no. of pods per plant, all pods considered",Soybeans (Glycine max) [2],5.8
same,"pod length - sum per trmt (mm), only pods >20 mm",Soybeans (Glycine max) [2],516 mm
same,"pod length - sum per trmt (mm), all pods considered",Soybeans (Glycine max) [2],674 mm
COCCON1C(=O)C(c2c(C)cc(C)cc2C)=C(O)C12CCN(OC)CC2 [Compound T22ii.070],BBCH (plant growth stage),[4],59
same,NDVI (Normalized difference vegetative index),[4],0.471
same,NIR (Near infrared band reflectance),[4],4.18
"CCOC(=O)OC1=C(c2c(C)cc(C)cc2C)C(=O)N(OCOC)C12CCN(OC)CC2 [T20ii.070, wherein G is CO2Et]",BBCH (plant growth stage),[4],59
same,NDVI (Normalized difference vegetative index),[4],0.539
same,NIR (Near infrared band reflectance),[4],4.65
CON1CCC2(CC1)NC(=O)C(c1cc(C)ccc1C)=C2O [Compound T1iii.030],BBCH (plant growth stage),[4],58
same,NDVI (Normalized difference vegetative index),[4],0.486
same,NIR (Near infrared band reflectance),[4],4.98
"CCOC(=O)OC1=C(c2cc(C)ccc2C)C(=O)N(OCOC)C12CCN(OC)CC2 [T20ii.030, wherein G is CO2Et]",BBCH (plant growth stage),[4],59
same,NDVI (Normalized difference vegetative index),[4],0.522
same,NIR (Near infrared band reflectance),[4],4.45
CON1CCC2(CC1)NC(=O)C(c1c(C)cc(C)cc1C)=C2O [Compound T1iii.70],BBCH (plant growth stage),[4],58
same,NDVI (Normalized difference vegetative index),[4],0.443
same,NIR (Near infrared band reflectance),[4],4.92
